According to ChEMBL document CHEMBL1201862, “PubChem BioAssay data set” (2004):
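Compound exposure: 48 hours, 5 concentrations, 96-well plates. The concentration for 50% growth inhibition is given as GI50.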 The source made the active and inactive calls. No stated cut-off is given here; in the data, active = GI50 up to about 1.1 µM and inactive = higher.

Columns and labels:
Experiment in all cases: growth of human tumour cells (NCI), 48 h
SK-MEL-5 = test system: SK-MEL-5
UACC-62 = test system: UACC-62
K562 = test system: K562
SNB-78 = test system: SNB-78
HOP-92 = test system: HOP-92
OVCAR-5 = test system: OVCAR-5
OVCAR-3 = test system: OVCAR-3
NCI-H23 = test system: NCI-H23
SW-620 = test system: SW-620
SN12C = test system: SN12C
OVCAR-4 = test system: OVCAR-4
HCT-15 = test system: HCT-15
LOX IMVI = test system: LOX IMVI
CAKI-1 = test system: CAKI-1
U-251 = test system: U-251
HCT-116 = test system: HCT-116
MDA-N = test system: MDA-N
PC-3 = test system: PC-3
MDA-MB-231 = test system: MDA-MB-231
DU-145 = test system: DU-145

SMILES	GI50 (SK-MEL-5)	GI50 (UACC-62)	GI50 (K562)	GI50 (SNB-78)	GI50 (HOP-92)	GI50 (OVCAR-5)	GI50 (OVCAR-3)	GI50 (NCI-H23)	GI50 (SW-620)	GI50 (SN12C)	GI50 (OVCAR-4)	GI50 (HCT-15)	GI50 (LOX IMVI)	GI50 (CAKI-1)	GI50 (U-251)	GI50 (HCT-116)	GI50 (MDA-N)	GI50 (PC-3)	GI50 (MDA-MB-231)	GI50 (DU-145)
CC(C)(C)C(C#N)(C#N)c1ccc(C(C#N)(C#N)C(C)(C)C)nn1	> 100 µM (inactive)	> 100 µM (inactive)	> 100 µM (inactive)	74.8 µM (inactive)	72.4 µM (inactive)	> 100 µM (inactive)	> 100 µM (inactive)	> 100 µM (inactive)	> 100 µM (inactive)	> 100 µM (inactive)	89.7 µM (inactive)	> 100 µM	> 100 µM (inactive)	83 µM (inactive)	–	–	–	–	–	–
CCCCN(CCCC)CC(C(=O)Nc1ccc([N+](=O)[O-])cc1[N+](=O)[O-])/C(C)=N\NC(=O)c1ccncc1 (configuration not stated)	> 100 µM (inactive)	> 100 µM (inactive)	> 100 µM (inactive)	> 100 µM (inactive)	90.6 µM (inactive)	> 100 µM (inactive)	> 100 µM (inactive)	> 100 µM (inactive)	> 100 µM (inactive)	> 100 µM (inactive)	> 100 µM (inactive)	> 100 µM	> 100 µM (inactive)	> 100 µM (inactive)	> 100 µM (inactive)	–	–	–	–	–
COc1ccc(CNc2nc3c(NC(C)=O)cc(C(F)(F)F)cc3nc2-c2ccccc2)cc1OC	21.5 µM (inactive)	45.3 µM (inactive)	> 100 µM (inactive)	10.7 µM (inactive)	–	> 100 µM (inactive)	93.1 µM (inactive)	59 µM (inactive)	77.3 µM (inactive)	> 100 µM (inactive)	10.6 µM (inactive)	> 100 µM	> 100 µM (inactive)	31.6 µM (inactive)	93.1 µM (inactive)	48.4 µM (inactive)	–	–	–	–
CN(C)c1ccc(C(=C2C=CC(=[N+](C)C)C=C2)c2ccc(N(C)C)cc2)cc1 [GENTIAN VIOLET]	0.0809 µM (active)	0.143 µM (active)	0.0327 µM (active)	0.637 µM (active)	0.196 µM (active)	0.202 µM (active)	–	0.0594 µM (active)	–	0.21 µM (active)	0.264 µM (active)	0.334 µM	0.0379 µM (active)	0.34 µM (active)	0.0354 µM (active)	–	–	–	–	–
Cc1ccc(/C=C/C(=O)c2sc(C(N)=S)nc2C)cc1	45.8 µM (inactive)	> 100 µM (inactive)	> 100 µM (inactive)	> 100 µM (inactive)	> 100 µM (inactive)	> 100 µM (inactive)	> 100 µM (inactive)	> 100 µM (inactive)	> 100 µM (inactive)	> 100 µM (inactive)	–	> 100 µM	> 100 µM (inactive)	> 100 µM (inactive)	> 100 µM (inactive)	–	–	–	–	–
COc1ccccc1NC(=O)CC(=O)N/N=C/c1ccc(N(CCC#N)S(=O)(=O)c2ccccc2)cc1	> 100 µM (inactive)	> 100 µM (inactive)	> 100 µM (inactive)	> 100 µM (inactive)	> 100 µM (inactive)	> 100 µM (inactive)	> 100 µM (inactive)	> 100 µM (inactive)	> 100 µM (inactive)	–	> 100 µM (inactive)	> 100 µM	> 100 µM (inactive)	> 100 µM (inactive)	> 100 µM (inactive)	> 100 µM (inactive)	–	–	–	–
Nc1ccn(CCNCCn2cnc3nc(N)[nH]c(=O)c32)c(=O)n1	–	–	> 100 µM (inactive)	> 100 µM (inactive)	> 100 µM (inactive)	> 100 µM (inactive)	> 100 µM (inactive)	> 100 µM (inactive)	> 100 µM (inactive)	> 100 µM (inactive)	> 100 µM (inactive)	> 100 µM	> 100 µM (inactive)	–	> 100 µM (inactive)	> 100 µM (inactive)	–	–	–	–
COc1ccc(-c2c(N)[n+]([O-])c3ccccc3[n+]2[O-])cc1OC	> 100 µM (inactive)	–	> 100 µM (inactive)	> 100 µM (inactive)	> 100 µM (inactive)	> 100 µM (inactive)	> 100 µM (inactive)	> 100 µM (inactive)	> 100 µM (inactive)	> 100 µM (inactive)	> 100 µM (inactive)	> 100 µM	–	> 100 µM (inactive)	> 100 µM (inactive)	> 100 µM (inactive)	–	–	–	–
Cn1c2ccccc2c2cc(-c3ccccc3)c3c(c21)C(=O)c1ccccc1C3=O	–	13.3 µM (inactive)	21.4 µM (inactive)	15.1 µM (inactive)	12.3 µM (inactive)	–	11.9 µM (inactive)	5.79 µM (inactive)	18.8 µM (inactive)	28.6 µM (inactive)	14.5 µM (inactive)	–	–	28.3 µM (inactive)	–	15.8 µM (inactive)	–	–	–	–
Cc1ccc(C(c2c(O)c3ccccc3n(-c3ccccc3)c2=O)c2c(O)c3ccccc3n(-c3ccccc3)c2=O)cc1	> 100 µM (inactive)	–	> 100 µM (inactive)	> 100 µM (inactive)	> 100 µM (inactive)	> 100 µM (inactive)	> 100 µM (inactive)	> 100 µM (inactive)	> 100 µM (inactive)	> 100 µM (inactive)	> 100 µM (inactive)	> 100 µM	> 100 µM (inactive)	> 100 µM (inactive)	> 100 µM (inactive)	> 100 µM (inactive)	–	–	–	–
CC1(C)OCN(c2ccc(S(N)(=O)=O)cc2)Cn2c1nc1ccccc12	–	> 100 µM (inactive)	> 100 µM (inactive)	> 100 µM (inactive)	> 100 µM (inactive)	–	> 100 µM (inactive)	> 100 µM (inactive)	> 100 µM (inactive)	> 100 µM (inactive)	> 100 µM (inactive)	> 100 µM	> 100 µM (inactive)	–	> 100 µM (inactive)	> 100 µM (inactive)	–	–	–	–
CN(C)c1ccc(C(=C(c2ccc(N(C)C)cc2)c2ccc(N(C)C)cc2)c2ccc(N(C)C)cc2)cc1	16.3 µM (inactive)	18.8 µM (inactive)	8.09 µM (inactive)	82.2 µM (inactive)	–	> 100 µM (inactive)	0.31 µM (active)	17 µM (inactive)	1.87 µM (inactive)	16.2 µM (inactive)	20.1 µM (inactive)	14.4 µM	13.5 µM (inactive)	12.4 µM (inactive)	13.9 µM (inactive)	13.4 µM (inactive)	–	–	–	–
Oc1ccc2c(O)cc(-c3ccccc3)nc2c1	30.1 µM (inactive)	19.9 µM (inactive)	19.2 µM (inactive)	48 µM (inactive)	29.3 µM (inactive)	58.9 µM (inactive)	–	36.4 µM (inactive)	16.4 µM (inactive)	24.3 µM (inactive)	26 µM (inactive)	15.8 µM	17.5 µM (inactive)	24.4 µM (inactive)	31.3 µM (inactive)	17.4 µM (inactive)	–	–	–	–
O=C1CC2[C@@H](N3CCCC3)CCC(N1Cc1ccccc1)C2(O)O (some centres not stated)	> 100 µM (inactive)	> 100 µM (inactive)	> 100 µM (inactive)	–	> 100 µM (inactive)	> 100 µM (inactive)	> 100 µM (inactive)	> 100 µM (inactive)	> 100 µM (inactive)	> 100 µM (inactive)	> 10 µM (inactive)	> 100 µM	> 100 µM (inactive)	> 100 µM (inactive)	> 100 µM (inactive)	> 100 µM (inactive)	> 100 µM (inactive)	> 100 µM (inactive)	> 100 µM (inactive)	> 100 µM (inactive)
C=CC(=O)C#Cc1cnc(OC)nc1OC	15.2 µM (inactive)	16.1 µM (inactive)	1.38 µM (inactive)	–	1.39 µM (inactive)	16.1 µM (inactive)	18.2 µM (inactive)	17.5 µM (inactive)	4.95 µM (inactive)	18.7 µM (inactive)	20.8 µM (inactive)	10.7 µM	5.46 µM (inactive)	7.29 µM (inactive)	13.9 µM (inactive)	9.59 µM (inactive)	16.4 µM (inactive)	19.8 µM (inactive)	19.8 µM (inactive)	37.2 µM (inactive)
CCOP(=O)(OCC)C(C(=O)OC)C(=O)C(=O)Nc1cccc([N+](=O)[O-])c1 (configuration not stated)	> 100 µM (inactive)	> 100 µM (inactive)	> 100 µM (inactive)	> 100 µM (inactive)	–	> 100 µM (inactive)	> 100 µM (inactive)	> 100 µM (inactive)	> 100 µM (inactive)	> 100 µM (inactive)	> 100 µM (inactive)	> 100 µM	> 100 µM (inactive)	> 100 µM (inactive)	> 100 µM (inactive)	> 100 µM (inactive)	–	–	–	–
O=C1CCCC/C1=C\c1ccc(Cl)c(Cl)c1	17.2 µM (inactive)	23.4 µM (inactive)	18.9 µM (inactive)	19.1 µM (inactive)	–	–	–	23.3 µM (inactive)	21.6 µM (inactive)	16.6 µM (inactive)	18.2 µM (inactive)	19.1 µM	18 µM (inactive)	19.2 µM (inactive)	16.6 µM (inactive)	17.1 µM (inactive)	–	–	–	–
[N-]=[N+]=Nc1ccc2c(c1)Sc1ccccc1N2CCCCN1CCN(Cc2ccc(C(=O)c3ccc(CSCC(N)C(=O)O)cc3)cc2)CC1 (configuration not stated)	13.8 µM (inactive)	11.3 µM (inactive)	12.5 µM (inactive)	–	9.84 µM (inactive)	52.4 µM (inactive)	26.9 µM (inactive)	31.3 µM (inactive)	1.87 µM (inactive)	31.3 µM (inactive)	> 100 µM (inactive)	14.2 µM	10.6 µM (inactive)	20.7 µM (inactive)	11.1 µM (inactive)	15.2 µM (inactive)	12.8 µM (inactive)	43.5 µM (inactive)	13.6 µM (inactive)	21.3 µM (inactive)
